Assay results from patent publication US20140314757A1, “PHYTOCANNABINOIDS FOR USE IN THE TREATMENT OF BREAST CANCER” (priority 2011, published 2014).

Experiments:
BT474 cells = assay: MTT cell viability, BT474 cells; type: cell-based, human; details: for cell viability, increasing concentrations: 72 h, concentration-related (FIG. 2); for cell viability at low concentrations: <1 μM, alone or 1:1 combination, 72 h (FIG. 3)
Protocol: (§1) The effect of THC and CBD, alone and in combination, on the viability of two different Her2-positive human breast cancer cell lines: SkBr3 and BT474 were tested.
(§2) Briefly, cells were incubated in RPMI (SkBr3) or DMEM (BT474) supplemented with 10% foetal bovine serum. After 12 hours of serum starvation, the cells were challenged with different concentrations of THC or CBD (or the corresponding vehicle, DMSO) for 72 h. Cell viability was then determined by the colorimetric MTT test.
The analysis of the combined drug effect was performed with the CalcuSyn v2.0 software. To determine whether the combination of THC and CBD was additive or synergistic, we calculated different combination indexes (Cis) using the algorithm by Chou and Talalay with the CalcuSyn v2.0 software.
For each ED, the software (i) plots a line connecting the concentrations of THC and CBD that produce that particular effect when administered as single agents, and (ii) generates a point that indicates the concentration of THC and CBD, applied as a combination, required to produce such effect. If the line is straight, this means that the two compounds are producing a simple additive effect and the point should appear within it.
The effect of THC and CBD, alone and in combination at different ratios, on the viability of BT474 cells was examined.
Cells were incubated in DMEM supplemented with 10% foetal bovine serum. After 12 hours of serum starvation, cells were challenged for 72 h as described in Table 3.1. Cell viability was then determined by the colorimetric MTT test.

SkBr3 cells = assay: MTT cell viability, SkBr3 cells; type: cell-based, human; details: for cell viability, increasing concentrations: 72 h, concentration-related (FIG. 2)
Protocol: as §1, §2

[1] = tested on: 231-Met (highly metastatic 231-Her2-derived cell line); assay: MTT cell viability, highly metastatic 231-Her2 cells; type: cell-based, human; details: for cell viability, increasing concentrations: 72 h (FIG. 9); for IC50 values, cell viability: 72 h, THC compared with CBD (FIG. 9)
Protocol: The effect of THC and CBD on the viability of a series of Her2-positive human breast cancer cell lines: MDA-MB-231 cells that ectopically overexpress Her2 (231-Her2), a highly metastatic version of 231-Her2 (231-Met), and three different trastuzumab-resistant 231-Her2-derived cell lines (TrR1, TrR2 and TrR3).
Cells were incubated in DMEM supplemented with 10% foetal bovine serum. After 12 hours of serum starvation, cells were challenged with different concentrations of THC or CBD (or the corresponding vehicle, DMSO) for 72 h. Cell viability was then determined by the colorimetric MTT test.
(§3) Cells were incubated in the presence of cannabinoids for 48 h and cell viability was assessed by the MTT colorimetric test.

MDA-MB-231 cells = assay: MTT cell viability, MDA-MB-231 cells; type: cell-based, human; details: 48 h (FIG. 11)
Protocol: as §3

[2] = tested on: MDA-MB-231 cells stably overexpressing Her2 (231-Her2); assay: MTT cell viability, 231-Her2 cells; type: cell-based, human; details: 48 h (FIGS. 13 and 14)
Protocol: as §3

id-1 gene expression = details: MDA-MB231 and MDA-MB436 cell lines; cited from earlier work

| Molecule | cell viability, increasing concentrations (BT474 cells) | cell viability at low concentrations (BT474 cells) | cell viability, increasing concentrations (SkBr3 cells) | cell viability, increasing concentrations [1] | IC50 values, cell viability [1] | cell viability, single agents (MDA-MB-231 cells) | cell viability, single agents, increasing concentrations [2] | id-1 gene expression (id-1 gene expression) | cell viability upon exposure to THC (BT474 cells; 6 μM THC, 72 h (FIG. 1C)) | cell viability upon exposure to THC (SkBr3 cells; 3 μM THC, 72 h (FIG. 1C)) | effect of CB2 antagonist on THC-induced decrease of viability (BT474 cells; 6 μM THC with 2 μM SR144528, 72 h (FIG. 1C)) | effect of CB2 antagonist on THC-induced decrease of viability (SkBr3 cells; 3 μM THC with 2 μM SR144528, 72 h (FIG. 1C)) |
| --- | --- | --- | --- | --- | --- | --- | --- | --- | --- | --- | --- | --- |
| C=C(C)[C@@H]1CCC(C)=C[C@H]1c1c(O)cc(CCCCC)cc1O [CBD, cannabidiol] | reduced their viability | no effect on cell viability | reduced their viability | decreased its viability | virtually identical | sensitive | decreases | inhibit |  |  |  |  |
| CCCCCc1cc(O)c2c(c1)OC(C)(C)[C@@H]1CCC(C)=C[C@@H]21 [THC, tetrahydrocannabinol] | reduced their viability | no effect on cell viability | reduced their viability | decreased its viability | virtually identical | sensitive | decreases |  | decreases | decreases |  |  |
| SR144528 |  |  |  |  |  |  |  |  |  |  | prevented | prevented |
